Data: patent publication EP0908457B1, “3-(1,2-benzisothiazol- and isoxazol-5-Y1)-2,4(1H,3H)-pyrimidinedione or thione and 3-(1,2-benzisothiazol- and isoxazol-5-y1)-4(3H)-pyrimidinone or thione herbicidal agents” (BASF AKTIENGESELLSCHAFT, priority 1997, dated 1999)

Experiments:
[1] = test system: Echinochloa oryzoides (Ard.) Fritsch.; experiment: Preemergence weed control under flooded paddy conditions, ECHORC (Watergrass (Calif.)); assay type: in vivo; conditions: flooded paddy, rated three to four weeks after treatment; on herbicidal effect rating, ECHORC: meaning of each grade not given here
Cyperus iria = experiment: Preemergence weed control under flooded paddy conditions, CYPIR (Rice Flatsedge); assay type: in vivo; conditions: flooded paddy, rated three to four weeks after treatment; on herbicidal effect rating, CYPIR: meaning of each grade not given here
[2] = test system: Cyperus serotinus, Rottb.; experiment: Preemergence weed control under flooded paddy conditions, CYPSE (Flatsedge); assay type: in vivo; conditions: rated three to four weeks after treatment; on herbicidal effect rating, CYPSE: meaning of each grade not given here
[3] = test system: Monochoria vaginalis, Presl.; experiment: Preemergence weed control under flooded paddy conditions, MOOVA (Monochoria); assay type: in vivo; conditions: flooded paddy, rated three to four weeks after treatment; on herbicidal effect rating, MOOVA: meaning of each grade not given here
Sagittaria pygmaea, L. = experiment: Preemergence weed control under flooded paddy conditions, SAGPY (Arrowhead (Pygmaea)); assay type: in vivo; conditions: flooded paddy, rated three to four weeks after treatment; on herbicidal effect rating, SAGPY: meaning of each grade not given here
[4] = test system: Oryza sativa, (L.) Tebonnet; experiment: Rice tolerance to post-transplant applications under flooded paddy conditions (Example 187), ORYSAT (Rice, Tebonnet); conditions: rated three to four weeks after treatment
[5] = Rate 0.0320 kg/ha, preemergence
[6] = Rate 0.0620 kg/ha, preemergence
[7] = Rate 0.1250 kg/ha, preemergence
[8] = Rate 0.2500 kg/ha, preemergence
[9] = Rate 0.0320 kg/ha, preemergence weeds
[10] = Rate 0.0620 kg/ha, preemergence weeds
[11] = Rate 0.1250 kg/ha, preemergence weeds
[12] = Rate 0.2500 kg/ha, preemergence weeds

SMILES: Cn1c(C(F)(F)F)cc(=O)n(-c2ccc3snc(C(=O)NO)c3c2)c1=O [Example 471, 1,2-Benzisothiazole-3-carbohydroxamic acid, 5-[3,6-dihydro-3-methyl-2,6-dioxo-4-(trifluoromethyl)-1(2H)-pyrimidinyl]-]
- ECHORC herbicidal rating ([1]; 0.0320 kg/ha, preemergence): 0.0
- ECHORC herbicidal rating ([1]; 0.0620 kg/ha, preemergence): 3.0
- ECHORC herbicidal rating ([1]; 0.1250 kg/ha, preemergence): 6.0
- ECHORC herbicidal rating ([1]; 0.2500 kg/ha, preemergence): 9.0
- CYPIR herbicidal rating (Cyperus iria; 0.0320 kg/ha, preemergence): 6.0
- CYPIR herbicidal rating (Cyperus iria; 0.0620 kg/ha, preemergence): 6.0
- CYPIR herbicidal rating (Cyperus iria; 0.1250 kg/ha, preemergence): 9.0
- CYPIR herbicidal rating (Cyperus iria; 0.2500 kg/ha, preemergence): 9.0
- CYPSE herbicidal rating ([2]; 0.0320 kg/ha, preemergence): 3.0
- CYPSE herbicidal rating ([2]; 0.2500 kg/ha, preemergence): 7.0
- MOOVA herbicidal rating ([3]; 0.0320 kg/ha, preemergence): 6.0
- MOOVA herbicidal rating ([3]; 0.0620 kg/ha, preemergence): 7.0
- MOOVA herbicidal rating ([3]; 0.1250 kg/ha, preemergence): 9.0
- MOOVA herbicidal rating ([3]; 0.2500 kg/ha, preemergence): 9.0
- SAGPY herbicidal rating (Sagittaria pygmaea, L.; 0.0320 kg/ha, preemergence): 0.0
- SAGPY herbicidal rating (Sagittaria pygmaea, L.; 0.0620 kg/ha, preemergence): 3.0
- SAGPY herbicidal rating (Sagittaria pygmaea, L.; 0.1250 kg/ha, preemergence): 5.0
- SAGPY herbicidal rating (Sagittaria pygmaea, L.; 0.2500 kg/ha, preemergence): 7.0
- ORYSAT herbicidal rating (rice tolerance) ([4]; 0.0320 kg/ha): 2.0
- ORYSAT herbicidal rating (rice tolerance) ([4]; 0.0620 kg/ha): 3.0
- ORYSAT herbicidal rating (rice tolerance) ([4]; 0.1250 kg/ha): 5.0
- ORYSAT herbicidal rating (rice tolerance) ([4]; 0.2500 kg/ha): 5.0

SMILES: Cc1ccc(OCC#N)c(-c2nsc3ccc(-n4c(=O)cc(C(F)(F)F)n(C)c4=O)cc23)c1 [Example 57, 3-{3-[6-(Cyanomethoxy)-m-tolyl]-1,2-benzisothiazol-5-yl}-1-methyl-6-(trifluoromethyl)-2,4(1H,3H)-pyrimidinedione]
- herbicidal effect rating, ECHORC ([1]; 0.0313 kg/ha, preemergence): 9.0
- herbicidal effect rating, ECHORC ([1]; 0.0625 kg/ha, preemergence): 9.0
- herbicidal effect rating, ECHORC ([1]; 0.1250 kg/ha, preemergence): 9.0
- herbicidal effect rating, ECHORC ([1]; 0.2500 kg/ha, preemergence): 9.0
- herbicidal effect rating, CYPIR (Cyperus iria; 0.0313 kg/ha, preemergence): 9.0
- herbicidal effect rating, CYPIR (Cyperus iria; 0.0625 kg/ha, preemergence): 9.0
- herbicidal effect rating, CYPIR (Cyperus iria; 0.1250 kg/ha, preemergence): 9.0
- herbicidal effect rating, CYPIR (Cyperus iria; 0.2500 kg/ha, preemergence): 9.0
- herbicidal effect rating, CYPSE ([2]; 0.0313 kg/ha, preemergence): 0.0
- herbicidal effect rating, CYPSE ([2]; 0.0625 kg/ha, preemergence): 0.0
- herbicidal effect rating, CYPSE ([2]; 0.1250 kg/ha, preemergence): 0.0
- herbicidal effect rating, CYPSE ([2]; 0.2500 kg/ha, preemergence): 0.0
- herbicidal effect rating, MOOVA ([3]; 0.0313 kg/ha, preemergence): 9.0
- herbicidal effect rating, MOOVA ([3]; 0.0625 kg/ha, preemergence): 9.0
- herbicidal effect rating, MOOVA ([3]; 0.1250 kg/ha, preemergence): 9.0
- herbicidal effect rating, MOOVA ([3]; 0.2500 kg/ha, preemergence): 9.0
- herbicidal effect rating, SAGPY (Sagittaria pygmaea, L.; 0.0313 kg/ha, preemergence): 0.0
- herbicidal effect rating, SAGPY (Sagittaria pygmaea, L.; 0.0625 kg/ha, preemergence): 0.0
- herbicidal effect rating, SAGPY (Sagittaria pygmaea, L.; 0.1250 kg/ha, preemergence): 0.0
- herbicidal effect rating, SAGPY (Sagittaria pygmaea, L.; 0.2500 kg/ha, preemergence): 0.0
- herbicidal effect rating, ORYSAT (rice tolerance) ([4]; 0.0313 kg/ha): 3.0
- herbicidal effect rating, ORYSAT (rice tolerance) ([4]; 0.0625 kg/ha): 4.0
- herbicidal effect rating, ORYSAT (rice tolerance) ([4]; 0.1250 kg/ha): 5.0
- herbicidal effect rating, ORYSAT (rice tolerance) ([4]; 0.2500 kg/ha): 6.0

SMILES: COc1noc2ccc(-n3c(=O)cc(C(F)(F)F)n(C)c3=O)cc12 [Example 42, 3-(3-Methoxy-1,2-benzisoxazol-5-yl)-1-methyl-6-(trifluoromethyl)-2,4(1H,3H)-pyrimidinedione]
- herbicidal effect rating, ECHORC ([1]; 0.0313 kg/ha, preemergence): 0.0
- herbicidal effect rating, ECHORC ([1]; 0.0625 kg/ha, preemergence): 0.0
- herbicidal effect rating, ECHORC ([1]; 0.1250 kg/ha, preemergence): 0.0
- herbicidal effect rating, ECHORC ([1]; 0.2500 kg/ha, preemergence): 0.0
- herbicidal effect rating, CYPIR (Cyperus iria; 0.0313 kg/ha, preemergence): 0.0
- herbicidal effect rating, CYPIR (Cyperus iria; 0.0625 kg/ha, preemergence): 0.0
- herbicidal effect rating, CYPIR (Cyperus iria; 0.1250 kg/ha, preemergence): 0.0
- herbicidal effect rating, CYPIR (Cyperus iria; 0.2500 kg/ha, preemergence): 0.0
- herbicidal effect rating, CYPSE ([2]; 0.0313 kg/ha, preemergence): 0.0
- herbicidal effect rating, CYPSE ([2]; 0.0625 kg/ha, preemergence): 0.0
- herbicidal effect rating, CYPSE ([2]; 0.1250 kg/ha, preemergence): 0.0
- herbicidal effect rating, CYPSE ([2]; 0.2500 kg/ha, preemergence): 0.0
- herbicidal effect rating, MOOVA ([3]; 0.0313 kg/ha, preemergence): 0.0
- herbicidal effect rating, MOOVA ([3]; 0.0625 kg/ha, preemergence): 0.0
- herbicidal effect rating, MOOVA ([3]; 0.1250 kg/ha, preemergence): 0.0
- herbicidal effect rating, MOOVA ([3]; 0.2500 kg/ha, preemergence): 0.0
- herbicidal effect rating, SAGPY (Sagittaria pygmaea, L.; 0.0313 kg/ha, preemergence): 0.0
- herbicidal effect rating, SAGPY (Sagittaria pygmaea, L.; 0.0625 kg/ha, preemergence): 0.0
- herbicidal effect rating, SAGPY (Sagittaria pygmaea, L.; 0.1250 kg/ha, preemergence): 0.0
- herbicidal effect rating, SAGPY (Sagittaria pygmaea, L.; 0.2500 kg/ha, preemergence): 0.0
- herbicidal effect rating, ORYSAT (rice tolerance) ([4]; 0.0313 kg/ha): 0.0
- herbicidal effect rating, ORYSAT (rice tolerance) ([4]; 0.0625 kg/ha): 0.0
- herbicidal effect rating, ORYSAT (rice tolerance) ([4]; 0.1250 kg/ha): 0.0
- herbicidal effect rating, ORYSAT (rice tolerance) ([4]; 0.2500 kg/ha): 0.0

SMILES: Cn1c(C(F)(F)F)cc(=O)n(-c2ccc3snc(C(C#N)=Cc4ccoc4)c3c2)c1=O [Example 593, 1,2-Benzisothiazole-3-acetonitrile, 5-[3,6-dihydro-3-methyl-2,6-dioxo-4-(trifluoromethyl)-1(2H)-pyrimidinyl]-alpha-(3-furylmethylene)-]
- herbicidal effect rating, ECHORC [1, 5]: 0.0
- herbicidal effect rating, ECHORC [1, 6]: 0.0
- herbicidal effect rating, ECHORC [1, 7]: 0.0
- herbicidal effect rating, ECHORC [1, 8]: 0.0
- herbicidal effect rating, CYPIR (Cyperus iria; [5]): 3.0
- herbicidal effect rating, CYPIR (Cyperus iria; [6]): 3.0
- herbicidal effect rating, CYPIR (Cyperus iria; [7]): 4.0
- herbicidal effect rating, CYPIR (Cyperus iria; [8]): 5.0
- herbicidal effect rating, CYPSE [2, 7]: 0.0
- herbicidal effect rating, CYPSE [2, 8]: 0.0
- herbicidal effect rating, MOOVA [3, 6]: 7.0
- herbicidal effect rating, MOOVA [3, 7]: 7.0
- herbicidal effect rating, MOOVA [3, 8]: 7.0
- herbicidal effect rating, SAGPY (Sagittaria pygmaea, L.; [5]): 0.0
- herbicidal effect rating, SAGPY (Sagittaria pygmaea, L.; [6]): 0.0
- herbicidal effect rating, SAGPY (Sagittaria pygmaea, L.; [7]): 0.0
- herbicidal effect rating, SAGPY (Sagittaria pygmaea, L.; [8]): 0.0
- herbicidal effect rating ORYSAT ([4]; Rate 0.0320 kg/ha): 0.0
- herbicidal effect rating ORYSAT ([4]; Rate 0.0620 kg/ha): 0.0
- herbicidal effect rating ORYSAT ([4]; Rate 0.1250 kg/ha): 0.0
- herbicidal effect rating ORYSAT ([4]; Rate 0.2500 kg/ha): 0.0

SMILES: CC(Oc1ccccc1-c1nsc2ccc(-n3c(=O)cc(C(F)(F)F)n(C)c3=O)cc12)C(=O)O (stereo not shown) [Example 314, Propionic acid, 2-{o-{5-[3,6-dihydro-3-methyl-2,6-dioxo-4-(trifluoromethyl)-1(2H)-pyrimidinyl]-1,2-benzisothiazol-3-yl}phenoxy}-]
- herbicidal effect rating, ECHORC [1, 9]: 5.0
- herbicidal effect rating, ECHORC [1, 10]: 5.0
- herbicidal effect rating, ECHORC [1, 11]: 9.0
- herbicidal effect rating, ECHORC [1, 12]: 9.0
- herbicidal effect rating, CYPIR (Cyperus iria; [9]): 9.0
- herbicidal effect rating, CYPIR (Cyperus iria; [10]): 9.0
- herbicidal effect rating, CYPIR (Cyperus iria; [11]): 9.0
- herbicidal effect rating, CYPIR (Cyperus iria; [12]): 9.0
- herbicidal effect rating, CYPSE [2, 9]: 0.0
- herbicidal effect rating, CYPSE [2, 10]: 0.0
- herbicidal effect rating, CYPSE [2, 11]: 0.0
- herbicidal effect rating, CYPSE [2, 12]: 0.0
- herbicidal effect rating, MOOVA [3, 9]: 9.0
- herbicidal effect rating, MOOVA [3, 10]: 9.0
- herbicidal effect rating, MOOVA [3, 11]: 9.0
- herbicidal effect rating, MOOVA [3, 12]: 9.0
- herbicidal effect rating, SAGPY (Sagittaria pygmaea, L.; [9]): 0.0
- herbicidal effect rating, SAGPY (Sagittaria pygmaea, L.; [10]): 0.0
- herbicidal effect rating, SAGPY (Sagittaria pygmaea, L.; [11]): 0.0
- herbicidal effect rating, SAGPY (Sagittaria pygmaea, L.; [12]): 0.0
- herbicidal effect rating ORYSAT ([4]; Rate 0.0320 kg/ha): 3.0
- herbicidal effect rating ORYSAT ([4]; Rate 0.0620 kg/ha): 3.0
- herbicidal effect rating ORYSAT ([4]; Rate 0.1250 kg/ha): 4.0
- herbicidal effect rating ORYSAT ([4]; Rate 0.2500 kg/ha): 5.0
